Measurements as given in ChEMBL document CHEMBL5390263, “Direct evaluation of polarity of the ligand binding pocket in retinoid X receptor using a fluorescent solvatochromic agonist” (Bioorg Med Chem Lett, 2023).
Active and inactive are the calls of the source. The calls are words filed in the database; no cut-off is given here.

Columns and labels:
[1] = target: T1, Retinoic acid receptor RXR-alpha (Homo sapiens) (UniProt P19793); experiment: Binding affinity to RXRalpha-LBD (unknown origin) assessed as increase in fluorescence intensity by measuring maximum excitation wavelength from 382 to 440 nm by FRET assay; details: filed as agonist, dose <= 16.0 µM
T1 sequence (whole entry): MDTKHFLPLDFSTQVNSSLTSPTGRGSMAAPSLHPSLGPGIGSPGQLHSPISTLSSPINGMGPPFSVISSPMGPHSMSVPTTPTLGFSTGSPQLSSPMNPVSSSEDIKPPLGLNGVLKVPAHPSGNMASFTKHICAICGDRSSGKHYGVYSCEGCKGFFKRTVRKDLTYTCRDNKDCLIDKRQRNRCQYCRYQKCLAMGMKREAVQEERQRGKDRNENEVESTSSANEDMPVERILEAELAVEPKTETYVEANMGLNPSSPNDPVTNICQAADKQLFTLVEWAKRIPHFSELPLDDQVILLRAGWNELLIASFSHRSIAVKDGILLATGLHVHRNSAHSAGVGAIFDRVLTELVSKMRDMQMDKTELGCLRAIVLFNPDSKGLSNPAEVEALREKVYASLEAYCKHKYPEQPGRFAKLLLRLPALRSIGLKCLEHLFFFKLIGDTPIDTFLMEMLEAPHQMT

[2] = target: T1, Retinoic acid receptor RXR-alpha (Homo sapiens); experiment: Binding affinity to RXRalpha-LBD (unknown origin) assessed as increase in fluorescence intensity by measuring maximum excitation of 440 nm wavelength at 16 uM by FRET assay; details: filed as agonist
[3] = target: T2, Retinoic acid receptor RXR-alpha (Homo sapiens, UniProt P19793); experiment: Binding affinity to RXRalpha-LBP (unknown origin) assessed as dissociation constant by FRET assay
T2 sequence (P19793 whole entry): T1 sequence (whole entry)

[4] = target: T2, Retinoic acid receptor RXR-alpha; experiment: Binding affinity to RXRalpha-LBD (unknown origin) assessed as dissociation constant by FRET assay
[5] = target: T1, Retinoic acid receptor RXR-alpha (Homo sapiens); experiment: Binding affinity to RXR alpha-LBD (unknown origin) assessed as increase in fluorescence intensity up to 16 uM by FRET assay; details: filed as agonist
[6] = target: T1, Retinoic acid receptor RXR-alpha (Homo sapiens); experiment: Binding affinity to RXRalpha-LBD (unknown origin) assessed as fluorescence intensity by measuring maximum excitation wavelength from 382 to 440 nm at 5 to 20 uM in the presence of bexarotene by FRET assay; details: dose 5-20 µM

CCN(c1ccc2c(C(F)(F)F)cc(=O)n(CC(C)C)c2c1)c1ccc(C(=O)O)cn1
Activity [1]: Dose-Dependent Effect
Activity [2]: Active
Kd [3]: 10.9 µM
Kd [4]: 6.3 µM
Activity [5]: Active
Activity [6]: inactive
